The values below come from patent US20220133679A1, “EFFLUX INHIBITOR COMPOSITIONS AND METHODS OF TREATMENT USING THE SAME” (Izumi Technology, LLC, priority 2012, published 2022).

One data set deals with MDCK cell monolayer. Put plainly: in vitro. It is filed as in vitro ADME. The following applies: dog, 1 μM. The method, then: (§1) An in vitro permeability assay using the MDCK cell line was performed to investigate the ability of elacridar to cross cellular membranes. […] Specifically, non-transduced MDCK cells, expressing only basal amounts of endogenous ABC-transporters, were seeded in the apical compartments of a 24 mm Transwell plate (3.0 μm Pore Polycarbonate Membrane Inserts) and incubated at 37° C. and 5.0% CO2 conditions until confluency was reached. Both apical-to-basolateral and basolateral-to-apical transport was analyzed in triplicate. To each donor compartment, 2 ml of Minimal Essential Medium (supplemented with 20% Fetal Bovine Serum) containing 1 μM elacridar and 50 nCi/ml (1.85 kBq/ml)^14C-inulin was added, while each acceptor compartment was filled with 2 ml blank Minimal Essential Medium (supplemented with 20% Fetal Bovine Serum). Samples of 100 μl were taken from each acceptor compartment at t=5 min, 30 min, 1 h, 2 h and 4 h as well as from all donor solutions for HPLC-MS/MS analysis of elacridar.
(§2) Samples for HPLC-MS/MS analysis were prepared as follows. Samples (50 μl) were pipetted into a 2 ml eppendorf vial and the internal standard (IS) solution (1 μM of elacridar-d4) in Minimal Essential Medium (supplemented with 20% Fetal Bovine Serum) and 1 ml of diethyl ether were added. […] An aliquot of 75 μl was subjected to HPLC-MS/MS using the conditions and set-up as described above for elacridar.
(§3) Leakage of the transwell membrane, as indicated by ^14C-inulin accumulation in the acceptor compartment, was analyzed in 10 μl samples from all time points as well as donor solutions. To each sample, 3 ml of Ultima Gold solution was added and vials were mixed thoroughly prior to radioactivity analysis using a Liquid Scintillation Counter.

The next data set in a line: in vitro. Conditions: dog, MDCK. It is filed as in vitro ADME. Here is the method:
as §1, §2, §3

Details of data set [1]: species or system female Sprague-Dawley rats. The following applies: rat, in vivo. The method, then:
Studies were conducted in female Sprague-Dawley rats. […] The selected 100 mg/kg dose is well above the level where nonlinear pharmacokinetics have been documented. Ten animals were used at weekly intervals between each dosing to allow washout of the drug from the previous dosing.
Elacridar suspension formulation was prepared by weighing 100.03 mg of elacridar, which was first suspended in 5 ml of water, followed by 5 ml of vehicle solution (2.5% w/v of hydroxypropyl methyl cellulose (HPMC) and 2% v/v of Tween 80). This suspension was stirred for about 2.5 hours prior to dosing. The final concentration was 10 mg/ml. This suspension was given at 10 μl per gram body weight to achieve a dose level of 100 mg/kg
Elacridar nanoparticle (NP) suspensions were used as received, except for a final 5-fold dilution step to obtain a NP suspension of 10 mg/ml of elacridar.
There were three study groups: 1) Elacridar Suspension (n=4); 2) Elacridar TPGS nanoparticles (n=5); and 3) Elacridar Poloxamer nanoparticles (n=5). All animals received elacridar orally by gavage under light isoflurane anesthesia. The animals were fasted for a period of 3 h before drug administration. Food pellets were returned to the cages after the 4 h sampling point. Blood samples from the tail vein at: 15, 30 min, 1, 2, 4, 7, 24, 30 and 48 hours. Samples were kept on ice and centrifuged within 2 h to separate plasma. Plasma was stored at −20° C.
Formulation for i.v. administration was prepared by weighing 61.12 mg of elacridar and dissolving this in 2.056 ml of DMSO. The final concentration was 30 mg/ml. Animals (n=4) received […] per gram body weight (5 mg/kg). Blood samples were taken from the tail vein at: 5, 15, 30 min, 1, 2, 4, 7, 24, 30 and 48 h. Samples were kept on ice and centrifuged within 2 h to separate plasma. Plasma was stored at −20° C.
Samples were pre-treated as follows. […] 1000 μl of diethyl ether was added.

What is called Papp A→B is the apparent permeability from the apical to the basolateral side of a cell layer. A lower Papp A→B goes with slow passage. As a reminder, the Papp B→A is how fast a substance crosses the layer from the basolateral side. `COc1cc2c(cc1OC)CN(CCc1ccc(NC(=O)c3cccc4c(=O)c5cccc(OC)c5[nH]c34)cc1)CC2` [elacridar]: the “amount of elacridar at the receptor side relative to drug content at the donor side” value in the data set with MDCK cell monolayer was “about 6%”. In the data set “in vitro”, this molecule showed a Papp A→B at 4 h, 1 μM of 11.2 ×10⁻⁶ cm/s and a Papp B→A at 4 h, 1 μM of 10.9 ×10⁻⁶ cm/s. Further, in data set [1] (100 mg/kg), the tolerability of dosing entry is recorded as “tolerated these doses of elacridar without any problem”.

The term AUC(0-inf) denotes total exposure, with the tail of the curve extrapolated. A lower AUC(0-inf) goes with low exposure. For orientation: Cmax means the maximum level reached in the sampled fluid or tissue. The term Tmax denotes the time at which the peak concentration occurs. For the molecule DMSO, in data set [1] (iv, 5 mg/kg), the “AUC(0-48 h)” value was 260.3 µg·min/mL, the area under the curve AUC(0-inf) stood at 272.2 µg·min/mL, the Cmax turned out to be 826.5 ng/mL and the F is 100.0%. Moreover, in data set [1] (iv, 5 mg/kg), the Tmax is reported as 0 h and the T½ was 6.9 h.
